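These data come from cells grown in 96-well plates and exposed to compound for 48 hours at five concentrations. TGI denotes the concentration required for complete inhibition of growth.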
What was measured:
Assay in all cases: DTP human tumour cell line panel, 48 h
HCT-116 colon = test system: HCT-116 colon
KM12 colon = test system: KM12 colon
NCI/ADR-RES ovarian = test system: NCI/ADR-RES ovarian
SNB-19 CNS = test system: SNB-19 CNS
NCI-H460 lung = test system: NCI-H460 lung
RPMI-8226 leukemia = test system: RPMI-8226 leukemia
BT-549 breast = test system: BT-549 breast
MALME-3M melanoma = test system: MALME-3M melanoma
SNB-75 CNS = test system: SNB-75 CNS
IGROV1 ovarian = test system: IGROV1 ovarian
HOP-92 NSCLC = test system: HOP-92 NSCLC
HCC-2998 colon = test system: HCC-2998 colon
HCT-15 colon = test system: HCT-15 colon
NCI-H226 lung = test system: NCI-H226 lung
A498 renal = test system: A498 renal
SF-295 CNS = test system: SF-295 CNS
T-47D breast = test system: T-47D breast
SF-268 CNS = test system: SF-268 CNS
DU-145 prostate = test system: DU-145 prostate
LOX IMVI melanoma = test system: LOX IMVI melanoma
TK-10 renal = test system: TK-10 renal
ACHN renal = test system: ACHN renal
K-562 leukemia = test system: K-562 leukemia
CAKI-1 renal = test system: CAKI-1 renal
HL-60(TB) leukemia = test system: HL-60(TB) leukemia
OVCAR-8 ovarian = test system: OVCAR-8 ovarian
MDA-MB-231 breast = test system: MDA-MB-231 breast
SR leukemia = test system: SR leukemia
786-0 renal = test system: 786-0 renal
HOP-62 NSCLC = test system: HOP-62 NSCLC
SW-620 colon = test system: SW-620 colon
A549 NSCLC = test system: A549 NSCLC
NCI-H23 lung = test system: NCI-H23 lung
OVCAR-3 ovarian = test system: OVCAR-3 ovarian
SK-MEL-2 melanoma = test system: SK-MEL-2 melanoma
UO-31 renal = test system: UO-31 renal
MOLT-4 leukemia = test system: MOLT-4 leukemia
UACC-257 melanoma = test system: UACC-257 melanoma
CCRF-CEM leukemia = test system: CCRF-CEM leukemia
UACC-62 melanoma = test system: UACC-62 melanoma
RXF 393 renal = test system: RXF 393 renal
MDA-MB-435 = test system: MDA-MB-435
SK-OV-3 ovarian = test system: SK-OV-3 ovarian
HS 578T breast = test system: HS 578T breast
MCF7 breast = test system: MCF7 breast
OVCAR-4 ovarian = test system: OVCAR-4 ovarian
SF-539 CNS = test system: SF-539 CNS
OVCAR-5 ovarian = test system: OVCAR-5 ovarian
SK-MEL-5 melanoma = test system: SK-MEL-5 melanoma
EKVX NSCLC = test system: EKVX NSCLC
COLO 205 colon = test system: COLO 205 colon
SN12C renal = test system: SN12C renal
PC-3 prostate = test system: PC-3 prostate
MDA-N = test system: MDA-N
U251 CNS = test system: U251 CNS
NCI-H522 lung = test system: NCI-H522 lung
M14 melanoma = test system: M14 melanoma
SK-MEL-28 melanoma = test system: SK-MEL-28 melanoma
HT29 colon = test system: HT29 colon

CCN(CC)/[N+]([O-])=N/OCOC
TGI (HCT-116 colon): > 100 µM | TGI (KM12 colon): > 100 µM | TGI (NCI/ADR-RES ovarian): > 100 µM | TGI (SNB-19 CNS): > 100 µM | TGI (NCI-H460 lung): > 100 µM | TGI (RPMI-8226 leukemia): > 100 µM | TGI (BT-549 breast): > 100 µM | TGI (MALME-3M melanoma): > 100 µM | TGI (SNB-75 CNS): > 100 µM | TGI (IGROV1 ovarian): > 100 µM | TGI (HOP-92 NSCLC): > 100 µM | TGI (HCC-2998 colon): > 100 µM | TGI (HCT-15 colon): > 100 µM | TGI (NCI-H226 lung): > 100 µM | TGI (A498 renal): > 100 µM | TGI (SF-295 CNS): > 100 µM | TGI (T-47D breast): > 100 µM | TGI (SF-268 CNS): > 100 µM | TGI (DU-145 prostate): > 100 µM | TGI (LOX IMVI melanoma): > 100 µM | TGI (TK-10 renal): > 100 µM | TGI (ACHN renal): > 100 µM | TGI (K-562 leukemia): > 100 µM | TGI (CAKI-1 renal): > 100 µM | TGI (HL-60(TB) leukemia): > 100 µM | TGI (OVCAR-8 ovarian): > 100 µM | TGI (MDA-MB-231 breast): > 100 µM | TGI (SR leukemia): > 100 µM | TGI (786-0 renal): > 100 µM | TGI (HOP-62 NSCLC): > 100 µM | TGI (SW-620 colon): > 100 µM | TGI (A549 NSCLC): > 100 µM | TGI (NCI-H23 lung): > 100 µM | TGI (OVCAR-3 ovarian): > 100 µM | TGI (SK-MEL-2 melanoma): > 100 µM | TGI (UO-31 renal): > 100 µM | TGI (MOLT-4 leukemia): > 100 µM | TGI (UACC-257 melanoma): > 100 µM | TGI (CCRF-CEM leukemia): > 100 µM | TGI (UACC-62 melanoma): > 100 µM | TGI (RXF 393 renal): > 100 µM | TGI (MDA-MB-435): > 100 µM | TGI (SK-OV-3 ovarian): > 100 µM | TGI (HS 578T breast): > 100 µM | TGI (MCF7 breast): > 100 µM | TGI (OVCAR-4 ovarian): > 100 µM | TGI (SF-539 CNS): > 100 µM | TGI (OVCAR-5 ovarian): > 100 µM | TGI (SK-MEL-5 melanoma): > 100 µM | TGI (EKVX NSCLC): > 100 µM | TGI (COLO 205 colon): > 100 µM | TGI (SN12C renal): > 100 µM | TGI (PC-3 prostate): > 100 µM | TGI (MDA-N): > 100 µM | TGI (U251 CNS): > 100 µM | TGI (NCI-H522 lung): > 100 µM | TGI (M14 melanoma): > 100 µM | TGI (SK-MEL-28 melanoma): > 100 µM | TGI (HT29 colon): > 100 µM

O=C1N/C(=N\N=C\c2ccccc2)C2(CCCCC2)O1
TGI (HCT-116 colon): > 100 µM | TGI (KM12 colon): > 100 µM | TGI (NCI/ADR-RES ovarian): > 100 µM | TGI (SNB-19 CNS): > 100 µM | TGI (NCI-H460 lung): > 100 µM | TGI (RPMI-8226 leukemia): > 100 µM | TGI (BT-549 breast): > 100 µM | TGI (MALME-3M melanoma): > 100 µM | TGI (SNB-75 CNS): 88.5 µM | TGI (IGROV1 ovarian): > 100 µM | TGI (HOP-92 NSCLC): > 100 µM | TGI (HCC-2998 colon): > 100 µM | TGI (HCT-15 colon): > 100 µM | TGI (NCI-H226 lung): > 100 µM | TGI (A498 renal): > 100 µM | TGI (SF-295 CNS): > 100 µM | TGI (T-47D breast): > 100 µM | TGI (SF-268 CNS): > 100 µM | TGI (DU-145 prostate): > 100 µM | TGI (LOX IMVI melanoma): > 100 µM | TGI (TK-10 renal): > 100 µM | TGI (ACHN renal): > 100 µM | TGI (K-562 leukemia): > 100 µM | TGI (CAKI-1 renal): > 100 µM | TGI (HL-60(TB) leukemia): > 100 µM | TGI (OVCAR-8 ovarian): > 100 µM | TGI (MDA-MB-231 breast): > 100 µM | TGI (SR leukemia): 76.4 µM | TGI (786-0 renal): > 100 µM | TGI (HOP-62 NSCLC): > 100 µM | TGI (SW-620 colon): > 100 µM | TGI (A549 NSCLC): > 100 µM | TGI (NCI-H23 lung): > 100 µM | TGI (OVCAR-3 ovarian): > 100 µM | TGI (SK-MEL-2 melanoma): > 100 µM | TGI (UO-31 renal): > 100 µM | TGI (MOLT-4 leukemia): > 100 µM | TGI (UACC-257 melanoma): > 100 µM | TGI (CCRF-CEM leukemia): 61.1 µM | TGI (UACC-62 melanoma): > 100 µM | TGI (RXF 393 renal): > 100 µM | TGI (MDA-MB-435): > 100 µM | TGI (SK-OV-3 ovarian): > 100 µM | TGI (HS 578T breast): > 100 µM | TGI (MCF7 breast): > 100 µM | TGI (OVCAR-4 ovarian): > 100 µM | TGI (SF-539 CNS): > 100 µM | TGI (OVCAR-5 ovarian): > 100 µM | TGI (SK-MEL-5 melanoma): > 100 µM | TGI (EKVX NSCLC): > 100 µM | TGI (COLO 205 colon): > 100 µM | TGI (SN12C renal): > 100 µM | TGI (PC-3 prostate): > 100 µM | TGI (MDA-N): > 100 µM | TGI (U251 CNS): > 100 µM | TGI (NCI-H522 lung): > 100 µM | TGI (M14 melanoma): > 100 µM | TGI (SK-MEL-28 melanoma): > 100 µM | TGI (HT29 colon): > 100 µM

Reference: PubChem BioAssay (NCI)
